Results: the kinase profiling compilation of Christmann-Franck et al. (2016)

Key:
Assay in all cases: radiometric filter-binding kinase assay
[1] = target: AURKA (human) (UniProt O14965)
[2] = target: BRSK1 (human) (UniProt Q8TDC3)
[3] = target: BRSK2 (human) (UniProt Q8IWQ3)
[4] = target: CDK2 CCNA2 (human) (UniProt P20248+P24941)
[5] = target: CSK (human) (UniProt P41240)
[6] = target: CSNK1D (human) (UniProt P48730)
[7] = target: FGFR1 (human) (UniProt P11362)
[8] = target: FLT1 (human) (UniProt P17948)
[9] = target: INSR (human) (UniProt P06213)
[10] = target: INSRR (human) (UniProt P14616)
[11] = target: IRAK4 (human) (UniProt Q9NWZ3)
Sequence of IRAK4 (human) (Q9NWZ3 whole entry, looked up): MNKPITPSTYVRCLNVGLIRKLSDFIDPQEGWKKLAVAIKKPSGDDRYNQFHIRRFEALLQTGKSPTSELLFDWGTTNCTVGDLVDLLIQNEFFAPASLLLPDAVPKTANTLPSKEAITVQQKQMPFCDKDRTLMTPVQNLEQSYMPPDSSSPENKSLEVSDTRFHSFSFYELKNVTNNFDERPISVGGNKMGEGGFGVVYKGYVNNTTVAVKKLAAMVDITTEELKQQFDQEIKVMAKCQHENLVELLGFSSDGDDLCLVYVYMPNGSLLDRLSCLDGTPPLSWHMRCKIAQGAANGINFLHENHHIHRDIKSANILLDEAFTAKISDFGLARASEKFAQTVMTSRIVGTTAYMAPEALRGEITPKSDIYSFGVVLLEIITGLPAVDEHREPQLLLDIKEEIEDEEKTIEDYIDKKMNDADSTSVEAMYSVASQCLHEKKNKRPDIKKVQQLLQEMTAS

[12] = target: MAP3K11 (human) (UniProt Q16584)
[13] = target: MAPK12 (human) (UniProt P53778)
Sequence of MAPK12 (human) (P53778 whole entry, looked up): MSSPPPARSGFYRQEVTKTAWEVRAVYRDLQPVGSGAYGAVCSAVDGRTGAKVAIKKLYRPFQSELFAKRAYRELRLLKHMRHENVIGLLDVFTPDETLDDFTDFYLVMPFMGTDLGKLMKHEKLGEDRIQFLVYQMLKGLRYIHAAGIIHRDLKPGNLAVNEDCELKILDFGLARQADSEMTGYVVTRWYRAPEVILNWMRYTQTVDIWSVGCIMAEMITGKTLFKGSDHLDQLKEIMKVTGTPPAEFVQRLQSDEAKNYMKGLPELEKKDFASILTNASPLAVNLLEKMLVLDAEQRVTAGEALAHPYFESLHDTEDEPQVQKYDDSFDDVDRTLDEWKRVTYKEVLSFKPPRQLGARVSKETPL

[14] = target: MAPK8 (human) (UniProt P45983)
[15] = target: MAPKAPK3 (human) (UniProt Q16644)
[16] = target: MARK4 (human) (UniProt Q96L34)
Sequence of MARK4 (human) (Q96L34 whole entry, looked up): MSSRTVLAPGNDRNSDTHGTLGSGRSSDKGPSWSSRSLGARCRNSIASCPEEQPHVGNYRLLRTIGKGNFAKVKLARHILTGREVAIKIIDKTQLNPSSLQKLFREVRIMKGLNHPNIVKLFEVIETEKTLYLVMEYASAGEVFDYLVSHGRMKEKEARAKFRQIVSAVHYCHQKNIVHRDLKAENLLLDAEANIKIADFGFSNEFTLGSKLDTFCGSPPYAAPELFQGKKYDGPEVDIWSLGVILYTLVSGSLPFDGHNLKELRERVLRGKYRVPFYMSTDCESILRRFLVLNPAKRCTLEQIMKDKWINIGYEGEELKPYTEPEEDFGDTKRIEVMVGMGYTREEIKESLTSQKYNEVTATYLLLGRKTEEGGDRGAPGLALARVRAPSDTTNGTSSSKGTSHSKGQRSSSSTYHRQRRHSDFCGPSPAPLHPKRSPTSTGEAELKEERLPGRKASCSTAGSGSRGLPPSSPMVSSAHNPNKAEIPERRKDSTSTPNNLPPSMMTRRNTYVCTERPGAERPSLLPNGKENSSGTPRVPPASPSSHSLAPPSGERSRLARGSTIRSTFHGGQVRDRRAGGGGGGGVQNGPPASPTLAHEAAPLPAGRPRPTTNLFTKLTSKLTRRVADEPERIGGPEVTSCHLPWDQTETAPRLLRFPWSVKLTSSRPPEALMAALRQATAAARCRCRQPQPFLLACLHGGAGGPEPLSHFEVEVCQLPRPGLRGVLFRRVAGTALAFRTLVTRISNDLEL

[17] = target: MELK (human) (UniProt Q14680)
[18] = target: MYLK (human) (UniProt Q15746)
[19] = system: PAK2 (human), Q13177 [T402E]
[20] = target: PIM1 (human) (UniProt P11309)
[21] = target: PIM3 (human) (UniProt Q86V86)
[22] = target: PLK1 (human) (UniProt P53350)
[23] = target: RIPK2 (human) (UniProt O43353)
Sequence of RIPK2 (human) (O43353 whole entry, looked up): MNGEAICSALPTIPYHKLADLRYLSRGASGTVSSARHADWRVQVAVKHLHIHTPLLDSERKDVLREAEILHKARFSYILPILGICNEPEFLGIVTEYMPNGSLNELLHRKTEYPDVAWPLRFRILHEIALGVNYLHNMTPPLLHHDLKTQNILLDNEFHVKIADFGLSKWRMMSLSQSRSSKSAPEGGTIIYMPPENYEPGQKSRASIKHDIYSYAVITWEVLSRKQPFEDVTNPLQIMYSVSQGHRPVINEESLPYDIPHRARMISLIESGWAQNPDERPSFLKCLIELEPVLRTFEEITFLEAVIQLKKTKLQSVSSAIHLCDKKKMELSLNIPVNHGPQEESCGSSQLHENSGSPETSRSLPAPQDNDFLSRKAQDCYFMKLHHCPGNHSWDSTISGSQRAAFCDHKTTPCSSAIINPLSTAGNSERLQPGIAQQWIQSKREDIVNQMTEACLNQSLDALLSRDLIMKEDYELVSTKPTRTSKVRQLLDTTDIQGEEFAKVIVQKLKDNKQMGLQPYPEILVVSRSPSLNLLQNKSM

[24] = target: RPS6KA3 KD1 KD2 (human) (UniProt P51812)
[25] = system: RPS6KB1 (human), P23443 [T412E]
[26] = system: SGK1 (human), O00141 [S422D]
[27] = target: SYK (human) (UniProt P43405)
[28] = target: TBK1 (human) (UniProt Q9UHD2)
[29] = target: TTK (human) (UniProt P33981)
Sequence of TTK (human) (P33981 whole entry, looked up): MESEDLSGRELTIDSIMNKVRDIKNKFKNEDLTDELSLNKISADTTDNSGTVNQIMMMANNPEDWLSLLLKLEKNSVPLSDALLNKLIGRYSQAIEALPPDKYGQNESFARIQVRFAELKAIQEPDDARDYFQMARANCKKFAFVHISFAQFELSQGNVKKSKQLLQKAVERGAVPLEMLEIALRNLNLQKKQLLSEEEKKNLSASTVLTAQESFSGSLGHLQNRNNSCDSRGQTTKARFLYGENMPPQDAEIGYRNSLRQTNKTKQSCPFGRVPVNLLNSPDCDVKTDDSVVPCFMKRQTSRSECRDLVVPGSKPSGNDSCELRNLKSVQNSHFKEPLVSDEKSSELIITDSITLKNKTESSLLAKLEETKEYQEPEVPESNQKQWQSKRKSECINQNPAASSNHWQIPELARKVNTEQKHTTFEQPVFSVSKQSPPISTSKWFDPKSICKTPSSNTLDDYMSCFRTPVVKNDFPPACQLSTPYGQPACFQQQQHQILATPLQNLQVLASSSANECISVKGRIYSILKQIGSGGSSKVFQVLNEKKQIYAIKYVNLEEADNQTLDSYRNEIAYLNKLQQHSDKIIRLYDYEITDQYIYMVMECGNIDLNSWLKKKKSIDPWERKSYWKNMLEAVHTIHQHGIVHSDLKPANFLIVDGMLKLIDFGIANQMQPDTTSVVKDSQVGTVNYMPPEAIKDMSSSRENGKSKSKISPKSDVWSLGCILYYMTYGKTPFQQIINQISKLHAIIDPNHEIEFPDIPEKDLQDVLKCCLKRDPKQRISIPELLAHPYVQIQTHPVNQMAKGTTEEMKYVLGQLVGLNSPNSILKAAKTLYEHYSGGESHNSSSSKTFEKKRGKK

Sequence of FGFR1 (human) (P11362 whole entry, looked up): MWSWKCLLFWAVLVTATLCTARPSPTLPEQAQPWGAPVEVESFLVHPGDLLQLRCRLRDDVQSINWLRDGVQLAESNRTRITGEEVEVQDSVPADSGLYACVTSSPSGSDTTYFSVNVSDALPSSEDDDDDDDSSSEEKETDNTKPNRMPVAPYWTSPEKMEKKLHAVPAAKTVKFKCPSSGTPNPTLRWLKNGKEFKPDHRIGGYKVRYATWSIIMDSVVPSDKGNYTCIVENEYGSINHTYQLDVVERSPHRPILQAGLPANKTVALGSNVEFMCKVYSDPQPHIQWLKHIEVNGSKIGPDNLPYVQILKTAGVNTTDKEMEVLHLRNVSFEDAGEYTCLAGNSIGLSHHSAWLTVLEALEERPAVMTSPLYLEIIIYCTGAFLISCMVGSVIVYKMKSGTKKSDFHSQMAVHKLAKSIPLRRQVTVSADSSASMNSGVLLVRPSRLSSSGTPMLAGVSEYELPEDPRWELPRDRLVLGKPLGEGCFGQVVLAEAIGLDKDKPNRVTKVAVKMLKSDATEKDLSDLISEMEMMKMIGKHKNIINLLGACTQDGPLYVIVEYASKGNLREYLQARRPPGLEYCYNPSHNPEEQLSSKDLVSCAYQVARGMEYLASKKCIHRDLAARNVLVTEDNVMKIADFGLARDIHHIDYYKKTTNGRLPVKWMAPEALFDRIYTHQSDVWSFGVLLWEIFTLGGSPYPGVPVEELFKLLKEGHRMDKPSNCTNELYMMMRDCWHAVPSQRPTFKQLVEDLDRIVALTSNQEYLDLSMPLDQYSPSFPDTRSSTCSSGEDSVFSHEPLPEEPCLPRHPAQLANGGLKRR
Sequence of BRSK1 (human) (Q8TDC3 whole entry, looked up): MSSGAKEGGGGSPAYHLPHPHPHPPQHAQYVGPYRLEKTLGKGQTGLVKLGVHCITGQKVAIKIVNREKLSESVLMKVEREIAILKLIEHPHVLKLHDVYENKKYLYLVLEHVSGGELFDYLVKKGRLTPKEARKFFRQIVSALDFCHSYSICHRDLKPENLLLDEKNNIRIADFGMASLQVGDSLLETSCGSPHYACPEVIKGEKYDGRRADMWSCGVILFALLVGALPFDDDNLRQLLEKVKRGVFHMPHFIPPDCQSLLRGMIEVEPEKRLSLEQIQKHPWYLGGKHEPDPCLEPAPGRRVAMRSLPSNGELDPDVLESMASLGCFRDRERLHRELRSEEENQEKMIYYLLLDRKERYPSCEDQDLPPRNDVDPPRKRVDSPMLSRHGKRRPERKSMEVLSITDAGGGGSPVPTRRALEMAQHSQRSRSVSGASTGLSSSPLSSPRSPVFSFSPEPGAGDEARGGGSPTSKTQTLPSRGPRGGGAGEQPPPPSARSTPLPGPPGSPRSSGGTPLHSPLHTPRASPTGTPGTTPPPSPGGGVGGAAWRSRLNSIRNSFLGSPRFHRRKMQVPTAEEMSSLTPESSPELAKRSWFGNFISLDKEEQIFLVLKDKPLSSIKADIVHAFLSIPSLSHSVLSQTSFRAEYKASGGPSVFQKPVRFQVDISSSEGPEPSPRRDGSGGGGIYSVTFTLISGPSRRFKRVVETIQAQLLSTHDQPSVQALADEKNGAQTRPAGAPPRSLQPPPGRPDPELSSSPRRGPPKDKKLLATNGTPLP

CN1C(=O)[C@@H](Cc2c[nH]c3ccccc23)NC1=S
residual activity ([1]; compound 1.0 µM): 101%
residual activity ([1]; compound 10.0 µM): 102%
residual activity ([2]; compound 1.0 µM): 101%
residual activity ([2]; compound 10.0 µM): 103%
residual activity ([3]; compound 1.0 µM): 91%
residual activity ([3]; compound 10.0 µM): 85%
residual activity ([4]; compound 1.0 µM): 77%
residual activity ([4]; compound 10.0 µM): 93%
residual activity ([5]; compound 1.0 µM): 98%
residual activity ([5]; compound 10.0 µM): 110%
residual activity ([6]; compound 1.0 µM): 94%
residual activity ([6]; compound 10.0 µM): 101%
residual activity ([7]; compound 1.0 µM): 93%
residual activity ([7]; compound 10.0 µM): 100%
residual activity ([8]; compound 1.0 µM): 91%
residual activity ([8]; compound 10.0 µM): 88%
residual activity ([9]; compound 1.0 µM): 88%
residual activity ([9]; compound 10.0 µM): 106%
residual activity ([10]; compound 1.0 µM): 81%
residual activity ([10]; compound 10.0 µM): 87%
residual activity ([11]; compound 1.0 µM): 109%
residual activity ([11]; compound 10.0 µM): 99%
residual activity ([12]; compound 1.0 µM): 109%
residual activity ([12]; compound 10.0 µM): 109%
residual activity ([13]; compound 1.0 µM): 111%
residual activity ([13]; compound 10.0 µM): 101%
residual activity ([14]; compound 1.0 µM): 85%
residual activity ([14]; compound 10.0 µM): 79%
residual activity ([15]; compound 1.0 µM): 119%
residual activity ([15]; compound 10.0 µM): 114%
residual activity ([16]; compound 1.0 µM): 98%
residual activity ([16]; compound 10.0 µM): 96%
residual activity ([17]; compound 1.0 µM): 88%
residual activity ([17]; compound 10.0 µM): 89%
residual activity ([18]; compound 1.0 µM): 83%
residual activity ([18]; compound 10.0 µM): 81%
residual activity ([19]; compound 1.0 µM): 102%
residual activity ([19]; compound 10.0 µM): 94%
residual activity ([20]; compound 1.0 µM): 87%
residual activity ([20]; compound 10.0 µM): 94%
residual activity ([21]; compound 1.0 µM): 88%
residual activity ([21]; compound 10.0 µM): 85%
residual activity ([22]; compound 1.0 µM): 81%
residual activity ([22]; compound 10.0 µM): 88%
residual activity ([23]; compound 10.0 µM): 112%
residual activity ([24]; compound 1.0 µM): 91%
residual activity ([24]; compound 10.0 µM): 92%
residual activity ([25]; compound 1.0 µM): 83%
residual activity ([25]; compound 10.0 µM): 99%
residual activity ([26]; compound 1.0 µM): 99%
residual activity ([26]; compound 10.0 µM): 98%
residual activity ([27]; compound 1.0 µM): 84%
residual activity ([27]; compound 10.0 µM): 125%
residual activity ([28]; compound 1.0 µM): 87%
residual activity ([28]; compound 10.0 µM): 96%
residual activity ([29]; compound 1.0 µM): 98%
residual activity ([29]; compound 10.0 µM): 106%

O=C(O)c1cc(N=Nc2ccc(S(=O)(=O)Nc3ccccn3)cc2)ccc1O
residual activity ([1]; compound 10.0 µM): 100%
residual activity ([2]; compound 1.0 µM): 97%
residual activity ([2]; compound 10.0 µM): 92%
residual activity ([3]; compound 1.0 µM): 106%
residual activity ([3]; compound 10.0 µM): 87%
residual activity ([4]; compound 1.0 µM): 93%
residual activity ([4]; compound 10.0 µM): 107%
residual activity ([5]; compound 1.0 µM): 119%
residual activity ([5]; compound 10.0 µM): 119%
residual activity ([6]; compound 1.0 µM): 103%
residual activity ([6]; compound 10.0 µM): 95%
residual activity ([7]; compound 1.0 µM): 110%
residual activity ([7]; compound 10.0 µM): 115%
residual activity ([8]; compound 1.0 µM): 102%
residual activity ([8]; compound 10.0 µM): 105%
residual activity ([9]; compound 1.0 µM): 101%
residual activity ([9]; compound 10.0 µM): 97%
residual activity ([10]; compound 10.0 µM): 80%
residual activity ([11]; compound 1.0 µM): 104%
residual activity ([11]; compound 10.0 µM): 97%
residual activity ([12]; compound 10.0 µM): 71%
residual activity ([13]; compound 1.0 µM): 97%
residual activity ([13]; compound 10.0 µM): 100%
residual activity ([14]; compound 1.0 µM): 96%
residual activity ([14]; compound 10.0 µM): 96%
residual activity ([15]; compound 1.0 µM): 116%
residual activity ([15]; compound 10.0 µM): 85%
residual activity ([16]; compound 1.0 µM): 98%
residual activity ([16]; compound 10.0 µM): 89%
residual activity ([17]; compound 1.0 µM): 113%
residual activity ([17]; compound 10.0 µM): 101%
residual activity ([18]; compound 1.0 µM): 112%
residual activity ([18]; compound 10.0 µM): 99%
residual activity ([19]; compound 1.0 µM): 108%
residual activity ([19]; compound 10.0 µM): 94%
residual activity ([20]; compound 1.0 µM): 88%
residual activity ([20]; compound 10.0 µM): 44%
residual activity ([21]; compound 1.0 µM): 63%
residual activity ([21]; compound 10.0 µM): 18%
residual activity ([22]; compound 1.0 µM): 106%
residual activity ([22]; compound 10.0 µM): 102%
residual activity ([23]; compound 1.0 µM): 115%
residual activity ([23]; compound 10.0 µM): 95%
residual activity ([24]; compound 1.0 µM): 97%
residual activity ([24]; compound 10.0 µM): 91%
residual activity ([25]; compound 1.0 µM): 80%
residual activity ([25]; compound 10.0 µM): 90%
residual activity ([26]; compound 1.0 µM): 76%
residual activity ([26]; compound 10.0 µM): 54%
residual activity ([27]; compound 1.0 µM): 101%
residual activity ([27]; compound 10.0 µM): 107%
residual activity ([28]; compound 1.0 µM): 111%
residual activity ([28]; compound 10.0 µM): 99%
residual activity ([29]; compound 1.0 µM): 98%
residual activity ([29]; compound 10.0 µM): 88%
